{"source": "patent US20250000786A1", "about": "“SENOTHERAPY COMPOSITION CONTAINING CAMELLIA SINENSIS EXTRACT” (AMOREPACIFIC CORPORATION, priority 2023, published 2025)", "key": {"[1]": {"tested_on": "young human fibroblasts", "assay": "Cell death by CCK-8 in young fibroblasts", "assay_type": "cell-based", "conditions": "concentration of 50 ppm or higher, 72 hours", "procedure": "Human fibroblasts were cultured in a 6-well plate culture medium. Senescent cells were prepared by inducing senescence by culturing the fibroblasts in DMEM (containing 10% FBS) medium containing doxorubicin (100 ng/ml) and insulin-like growth factor 1 (IGF-1) (100 ng/ml) for 4 days. Then, the same medium was treated with a positive control material (ABT737, 1-10 uM) and the tea tree root extract (50-150 ppm) and cultured for 72 hours. The ABT737 is a Bcl-2 inhibitor and a representative senolytic. Young cells were treated with experimental materials in DMEM medium without inducing senescence and cultured for 72 hours.\nIn order to confirm the senolytic efficacy of the treatment with the tea tree root extract, the medium was replaced with a medium diluted 1/100 with Cell counting kit-8 (CCK-8, dojindo), cultured for 1 hour, and then the absorbance was measured at 540 nm.\nHuman fibroblasts were cultured in a 6-well plate culture medium. […]\nIn order to confirm the senolytic efficacy of the material treated with the tea tree root extract, the medium was replaced with a medium diluted 1/100 with Cell counting kit-8 (CCK-8, dojindo), cultured for 1 hour, and then the absorbance was measured at 540 nm."}, "[2]": {"tested_on": "senescent human fibroblasts", "assay": "Cell death by CCK-8 in senescence-induced fibroblasts", "assay_type": "cell-based", "conditions": "72 hours", "procedure": "Human fibroblasts were cultured in a 6-well plate culture medium. Senescent cells were prepared by inducing senescence by culturing the fibroblasts in DMEM (containing 10% FBS) medium containing doxorubicin (100 ng/ml) and insulin-like growth factor 1 (IGF-1) (100 ng/ml) for 4 days. Then, the same medium was treated with a positive control material (ABT737, 1-10 uM) and the tea tree root extract (50-150 ppm) and cultured for 72 hours. The ABT737 is a Bcl-2 inhibitor and a representative senolytic. Young cells were treated with experimental materials in DMEM medium without inducing senescence and cultured for 72 hours. In order to confirm the senolytic efficacy of the treatment with the tea tree root extract, the medium was replaced with a medium diluted 1/100 with Cell counting kit-8 (CCK-8, dojindo), cultured for 1 hour, and then the absorbance was measured at 540 nm. Human fibroblasts were cultured in a 6-well plate culture medium. […] In order to confirm the senolytic efficacy of the material treated with the tea tree root extract, the medium was replaced with a medium diluted 1/100 with Cell counting kit-8 (CCK-8, dojindo), cultured for 1 hour, and then the absorbance was measured at 540 nm."}}}
{"smiles": "O=C(O[C@@H]1Cc2c(O)cc(O)cc2O[C@@H]1c1cc(O)c(O)c(O)c1)c1cc(O)c(O)c(O)c1", "note": "[EGCG, epigallocatechin gallate]", "values": [{"measurement": "cytotoxicity on young cells", "setting": "[1]", "result": "showed cytotoxicity"}, {"measurement": "killing senescent cells in fibroblasts", "setting": "[2]", "result": "no effect"}]}
